The record followed here is patent publication US20090270444A1, “1,7-Naphthyridines” (priority 2004, published 2009).

What all share (format): biochemical
In one assay the target is T1, PDE6 (Bos taurus, UniProt P11541+P23439).
T1 construct: PDE6 may be purified from bovine retina; from tissue; host or cells: bovine retina
T1 sequence (P11541 2-856 limits assumed): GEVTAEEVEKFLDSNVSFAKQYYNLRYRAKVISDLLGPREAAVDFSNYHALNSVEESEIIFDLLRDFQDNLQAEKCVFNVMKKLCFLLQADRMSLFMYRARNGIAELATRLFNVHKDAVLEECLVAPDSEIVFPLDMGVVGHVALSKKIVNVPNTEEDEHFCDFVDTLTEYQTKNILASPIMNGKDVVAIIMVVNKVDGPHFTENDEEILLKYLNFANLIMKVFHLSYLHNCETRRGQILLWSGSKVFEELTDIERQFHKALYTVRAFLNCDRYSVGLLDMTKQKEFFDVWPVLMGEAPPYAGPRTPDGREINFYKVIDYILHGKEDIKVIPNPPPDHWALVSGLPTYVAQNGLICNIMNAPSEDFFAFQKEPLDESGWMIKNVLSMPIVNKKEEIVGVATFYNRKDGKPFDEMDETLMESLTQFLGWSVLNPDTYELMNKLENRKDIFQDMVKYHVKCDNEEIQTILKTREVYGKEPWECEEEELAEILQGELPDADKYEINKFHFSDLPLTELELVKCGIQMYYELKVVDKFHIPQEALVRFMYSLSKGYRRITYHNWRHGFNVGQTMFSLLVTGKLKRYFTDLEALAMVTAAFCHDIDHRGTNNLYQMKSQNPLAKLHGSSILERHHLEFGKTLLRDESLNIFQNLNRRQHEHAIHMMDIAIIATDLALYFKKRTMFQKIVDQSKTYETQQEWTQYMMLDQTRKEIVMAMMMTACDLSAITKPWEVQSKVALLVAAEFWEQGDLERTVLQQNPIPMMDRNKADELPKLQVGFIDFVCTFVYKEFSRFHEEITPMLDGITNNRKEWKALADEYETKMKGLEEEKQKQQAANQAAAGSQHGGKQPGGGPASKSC
T1 sequence (P23439 2-850 limits assumed): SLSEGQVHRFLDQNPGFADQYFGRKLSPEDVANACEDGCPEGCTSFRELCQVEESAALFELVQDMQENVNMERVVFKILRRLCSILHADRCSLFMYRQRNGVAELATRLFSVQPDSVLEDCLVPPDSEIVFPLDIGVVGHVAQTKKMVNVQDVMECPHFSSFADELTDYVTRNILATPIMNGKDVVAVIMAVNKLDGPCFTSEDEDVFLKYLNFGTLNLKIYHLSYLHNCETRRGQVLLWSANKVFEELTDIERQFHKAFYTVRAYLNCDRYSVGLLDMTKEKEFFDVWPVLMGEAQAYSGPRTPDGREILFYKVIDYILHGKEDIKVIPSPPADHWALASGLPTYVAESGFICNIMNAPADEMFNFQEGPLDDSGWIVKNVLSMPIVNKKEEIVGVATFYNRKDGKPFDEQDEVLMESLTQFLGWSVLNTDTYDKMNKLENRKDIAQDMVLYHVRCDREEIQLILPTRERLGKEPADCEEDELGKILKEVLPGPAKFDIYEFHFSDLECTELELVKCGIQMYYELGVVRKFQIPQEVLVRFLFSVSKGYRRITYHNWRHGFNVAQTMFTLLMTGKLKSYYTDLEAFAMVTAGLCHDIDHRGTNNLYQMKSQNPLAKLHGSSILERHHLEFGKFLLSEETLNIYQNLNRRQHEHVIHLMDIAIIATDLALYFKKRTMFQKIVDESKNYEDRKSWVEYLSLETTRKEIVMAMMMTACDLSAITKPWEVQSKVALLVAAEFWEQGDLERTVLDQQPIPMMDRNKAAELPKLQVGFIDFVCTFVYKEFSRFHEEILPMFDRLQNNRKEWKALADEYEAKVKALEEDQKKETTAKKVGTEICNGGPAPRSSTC
The experiment in a line: PDE6 IMAP fluorescence polarisation assay. The note with it: PDE6 from bovine retina; accurate to within ±0.5; read-out: PDE6 mean pIC50 (converted). An excerpt:
PDE6 may be purified from bovine retina as described by: P. Catty and P. Deterre, “Activation and solubilization of the retinal cGMP-specific phosphodiesterase by limited proteolysis”, Eur. J. Biochem., 1991, 199, 263-269; A. Tar et al. “Purification of bovine retinal cGMP phosphodiesterase”, Methods in Enzymology, 1994, 238, 3-12; and/or D. Srivastava et al. “Effects of magnesium on cyclic GMP hydrolysis by the bovine retinal rod cyclic GMP phosphodiesterase”, Biochem. J., 1995, 308, 653-658.
(§1) The ability of compounds to inhibit PDE catalytic activity was determined by IMAP Fluorescence Polarisation (FP) assay (Molecular Devices Ltd code: R8062) in 384-well format. Test compounds (small volume, e.g. 0.5 μl, of solution in DMSO) were preincubated at ambient temperature in black 384-well microtitre plates (supplier: NUNC, code 262260) with PDE enzyme in 10 mM Tris-HCl buffer pH 7.2, 10 mM MgCl2, 0.1% (w/v) bovine serum albumin, 0.05% NaN3 for 10-30 minutes. The enzyme level was set so that reaction was linear throughout the incubation.
(§2) For the PDE3, PDE4B and PDE4D assays Fluorescein adenosine 3′,5′-cyclic phosphate (Molecular Devices Ltd code: R7091) was added to give ˜40 nM final concentration. For the PDE5 and PDE6 assays Fluorescein guanosine 3′,5′-cyclic phosphate (Molecular Devices Ltd code: R7090) was added to give ˜40 nM final concentration. Plates were mixed on an orbital shaker for 10 seconds and incubated at ambient temperature for 40 minutes. IMAP binding reagent (Molecular Devices Ltd code: R7207) was added (60 μl of a 1 in 400 dilution in binding buffer of the kit stock solution) to terminate the assay. Plates were allowed to stand at ambient temperature for 1 hour. The FP ratio of parallel to perpendicular light was measured using an Analyst™ plate reader (from Molecular Devices Ltd). […] Curves were analysed using ActivityBase and XLfit (ID Business Solutions Limited). Results were expressed as pIC50 values.

A further assay addresses T2, Human recombinant PDE4B (Homo sapiens, UniProt Q07343).
T2 construct: made in house; host or cells: Saccharomyces cerevisiae strain GL62
The experiment in a line: PDE4B IMAP fluorescence polarisation assay. As to conditions: human recombinant PDE4B (HSPDE4B2B); accurate to within ±0.5; read-out: PDE4B mean pIC50 (converted).
Excerpt: Human recombinant PDE4B, in particular the 2B splice variant thereof (HSPDE4B2B), is disclosed in WO 94/20079 and also in M. M. McLaughlin et al., “A low Km, rolipram-sensitive, cAMP-specific phosphodiesterase from human brain: cloning and expression of cDNA, biochemical characterisation of recombinant protein, and tissue distribution of mRNA”, J. Biol. Chem., 1993, 268, 6470-6476. For example, in Example 1 of WO 94/20079, human recombinant PDE4B is described as being expressed in the PDE-deficient yeast Saccharomyces cerevisiae strain GL62, e.g. after induction by addition of 150 uM CuSO4, and 100,000×g supernatant fractions of yeast cell lysates are described for use in the harvesting of PDE4B enzyme.
as §1
as §2, with “Plates were allowed to stand at ambient temperature for 1 hour.” left out

Another assay has as its target Human recombinant PDE5 (Homo sapiens, UniProt O76074). The experiment in a line: PDE5 IMAP fluorescence polarisation assay. The note with it: accurate to within ±0.5, read-out: PDE5 mean pIC50 (converted). As to the method:
Human recombinant PDE5 is disclosed in K. Loughney et al., “Isolation and characterisation of cDNAs encoding PDE5A, a human cGMP-binding, cGMP-specific 3′,5′-cyclic nucleotide phosphodiesterase”, Gene, 1998, 216, 139-147.
as §1, §2
(Fluorescence polarisation rises when a labelled molecule tumbles more slowly, as on binding a larger partner.)

The next assay deals with Human recombinant PDE4D (Homo sapiens, UniProt Q08499). The experiment in a line: PDE4D IMAP fluorescence polarisation assay. The note with it: human recombinant PDE4D (HSPDE4D3A); accurate to within ±0.5; read-out: PDE4D mean pIC50 (converted). As to the method:
Human recombinant PDE4D (HSPDE4D3A) is disclosed in P. A. Baecker et al., “Isolation of a cDNA encoding a human rolipram-sensitive cyclic AMP phoshodiesterase (PDE IVD)”, Gene, 1994, 138, 253-256.
as §1, §2

SMILES strings stand for the structures.

Sequence of Human recombinant PDE4D (Q08499 1-673 isoform Q08499-2): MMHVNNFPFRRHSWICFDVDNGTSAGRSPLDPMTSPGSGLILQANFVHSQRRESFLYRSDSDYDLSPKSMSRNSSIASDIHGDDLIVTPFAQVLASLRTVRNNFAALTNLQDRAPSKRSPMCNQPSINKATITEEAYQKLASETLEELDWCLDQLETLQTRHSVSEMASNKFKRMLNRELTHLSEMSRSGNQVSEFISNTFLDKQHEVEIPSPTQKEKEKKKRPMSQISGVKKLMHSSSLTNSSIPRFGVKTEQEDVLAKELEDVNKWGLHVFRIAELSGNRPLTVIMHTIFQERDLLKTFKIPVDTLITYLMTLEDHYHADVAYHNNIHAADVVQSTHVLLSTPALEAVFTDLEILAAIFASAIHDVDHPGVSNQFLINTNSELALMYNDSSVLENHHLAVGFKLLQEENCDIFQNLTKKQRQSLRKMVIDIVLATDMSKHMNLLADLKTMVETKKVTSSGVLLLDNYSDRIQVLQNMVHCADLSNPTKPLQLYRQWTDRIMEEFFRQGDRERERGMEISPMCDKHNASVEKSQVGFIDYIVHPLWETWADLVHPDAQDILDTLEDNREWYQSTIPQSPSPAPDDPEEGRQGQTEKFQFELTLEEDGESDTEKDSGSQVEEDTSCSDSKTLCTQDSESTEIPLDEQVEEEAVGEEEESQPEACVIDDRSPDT
T2 sequence (Q07343 1-564 isoform Q07343-2): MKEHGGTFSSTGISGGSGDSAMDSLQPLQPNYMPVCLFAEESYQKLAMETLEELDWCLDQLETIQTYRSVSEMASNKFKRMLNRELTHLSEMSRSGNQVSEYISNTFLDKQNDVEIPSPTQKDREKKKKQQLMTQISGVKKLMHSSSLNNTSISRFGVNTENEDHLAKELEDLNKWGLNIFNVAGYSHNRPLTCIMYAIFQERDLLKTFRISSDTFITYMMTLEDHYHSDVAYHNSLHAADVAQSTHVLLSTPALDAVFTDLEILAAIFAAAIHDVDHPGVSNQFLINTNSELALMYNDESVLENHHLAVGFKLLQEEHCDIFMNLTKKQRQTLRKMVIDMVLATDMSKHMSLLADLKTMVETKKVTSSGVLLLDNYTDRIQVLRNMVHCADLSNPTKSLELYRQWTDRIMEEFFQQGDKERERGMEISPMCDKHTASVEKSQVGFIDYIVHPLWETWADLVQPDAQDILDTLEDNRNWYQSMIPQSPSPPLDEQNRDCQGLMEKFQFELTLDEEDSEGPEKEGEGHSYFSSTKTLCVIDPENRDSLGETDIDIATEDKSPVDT

As for `Cc1nc([S+](C)[O-])cc2c(Nc3cccc4c3CCO4)c(C(N)=O)cnc12` (racemic) [Example 3, (±)-4-(2,3-Dihydro-1-benzofuran-4-ylamino)-8-methyl-6-(methylsulfinyl)-1,7-naphthyridine-3-carboxamide], the IC50 is over 10000 nM on PDE6, 0.398 nM on Human recombinant PDE4B, over 10000 nM at Human recombinant PDE5 and 0.631 nM on Human recombinant PDE4D.
For `CSc1cc2c(Nc3cccc4c3CCO4)c(C(N)=O)cnc2c(C)n1` [Example 1, 4-(2,3-Dihydro-1-benzofuran-4-ylamino)-8-methyl-6-(methylthio)-1,7-naphthyridine-3-carboxamide], the IC50 at PDE6 was over 10000 nM; on Human recombinant PDE4B, 0.316 nM; on Human recombinant PDE5, over 10000 nM; at Human recombinant PDE4D, 0.316 nM.
On to `Cc1nc(S(C)(=O)=O)cc2c(Nc3cccc4c3CCO4)c(C(N)=O)cnc12` [Example 2, 4-(2,3-Dihydro-1-benzofuran-4-ylamino)-8-methyl-6-(methylsulfonyl)-1,7-naphthyridine-3-carboxamide], for which the IC50 at PDE6 was over 10000 nM; on Human recombinant PDE4B it was 0.126 nM; at Human recombinant PDE5, over 10000 nM; on Human recombinant PDE4D it was 0.2 nM.
